Measurements published in publication PMC7116804 (Green chemistry : an international journal and green …, 2019).

Target: Aa-ADH (Aromatoleum aromaticum, UniProt Q5P5I4)
Assay: oxidation of diol […] isomer mixture, product analysis
Type: biochemical
Conditions: NAD+ 1 mM recycled by NOX; Tris-HCl pH 7.5, 30 °C, 24 h

Chain of Aa-ADH (Q5P5I4 2-249): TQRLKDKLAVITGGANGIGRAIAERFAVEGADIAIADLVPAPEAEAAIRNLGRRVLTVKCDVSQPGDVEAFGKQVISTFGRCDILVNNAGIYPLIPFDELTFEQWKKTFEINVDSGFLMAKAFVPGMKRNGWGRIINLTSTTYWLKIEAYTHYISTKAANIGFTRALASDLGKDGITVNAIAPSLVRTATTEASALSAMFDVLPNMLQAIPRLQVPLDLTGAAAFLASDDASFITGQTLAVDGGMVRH

Structure (SMILES)	oxidation of diol 3 isomer mixture, product analysis
C[C@@H](O)[C@H](O)c1ccccc1 [1R,2R-3]	Aa-ADH oxidized 1R,2R-3, 1S,2S-3 and 1R,2S-3
C[C@H](O)[C@@H](O)c1ccccc1 [1S,2S-3]	Aa-ADH oxidized 1R,2R-3, 1S,2S-3 and 1R,2S-3
